36 molecules from paper PMC8767159, “Multiparameter Optimization of Trypanocidal Cruzain Inhibitors With In Vivo Activity and Favorable Pharmacokinetics” (Frontiers in Pharmacology, 2022) can be followed below.

The data set can be described thus: In vitro metabolic stability in human liver microsomes. As to conditions: for CLint scaled at 5 µM: human, liver microsomes. The class given is in vitro ADME. The procedure: Isolated mouse (BD Gentest, Bedford, MA) and human liver microsomes (XenoTech, Kansas City, KS) ([Plant, 2004]) were added at a final concentration of 0.25 mg/ml to a solution containing 40 mM dibasic potassium phosphate and 10 mM monobasic potassium phosphate. Stock solutions of compounds at 5 mM were prepared in 100% DMSO. A 50:50 quenching solution of acetonitrile (ACN) and methanol (MeOH) was prepared. An NADPH solution was prepared at 10 mM. The preparations containing the microsomes were added to each well of the incubation plate (450 µl), which was then heated to 37°C for 10 min. The compounds were added to the respective wells of the test plate (2 µl). Then, 300 µl of the microsome preparation was added to each well of the test plate. The test plate was heated under gentle rotation for 5 min at 37°C. Next, 90 µl of the mixture contained in the test plate was added to the incubation plate, making a final volume of 540 µl. Samples were collected at the following incubation times: 0, 5, 10, 15, 20, and 30 min. To the 0 min sample plate, quenching solution (180 µl), NADPH (6 µl), and the incubation plate mixture (54 µl) were added to each well. The sample plate was then sealed, homogenized, and stored at 4°C. Then, 54 µl of the NADPH solution was added to the incubation plate, which was homogenized. Before the collection of each sample at the established times, 45 µl of the quenching solution was added to each well of the corresponding sample plates. After reaching the incubation times, 60 µl of the mixture contained in the incubation plate was added to the corresponding sample plates. The sample plates were then sealed and stored at 4°C. After the collection of the last sample (30 min), all sample plates were centrifuged at 3,800 rpm for 30 min. The supernatant from each well was collected and transferred to clean plates for mass spectrometry. Five to 10 µl of each sample was injected into an AB Sciex Triple Quad 5500 LC-MS/MS instrument.
For the biotransformation experiments and analysis of metabolites in microsomes, an Ultra-High-Pressure Liquid Chromatography instrument (UHPLC, Thermo Accela, Waltham, MA) ([Spaggiari et al., 2014]) connected to an automatic sample injector and a 1250 series pump was used. The UHPLC system was connected to a Thermo Fisher (Waltham, MA) LTQ Orbitrap mass spectrometer. For all other analyses, an AB Sciex Triple Quad 5500 coupled to a UHPLC equipped with a UV 1290 diode detector (Agilent Technologies, Santa Clara, CA) and a CTC PAL self-collecting system (LEAP Technologies, Carrboro, NC) was used. Q1 MS positive ion mode (300–500 Da) was used to detect the ions of the parent compounds. The UV detector was operated in spectral mode (250–280 nm). A Hypersil Gold C18 (2.1 mm × 100 mm, 1.9 µm, Thermo Fisher) HPLC column was used. The mobile phases were solvent A (0.1% formic acid in water) and solvent B (0.1% formic acid in ACN). The flow was adjusted to 0.55 ml/min, and the injection volume was adjusted to […]. The gradient started with 1% solvent B for 0.4 min, reached 40% (solvent B) in 2.3 min and 95% (solvent B) in 0.67 min, was maintained for 0.5 min, and returned to the initial condition of 1%. This condition was maintained for 1 min before injection of the next sample. The peak area ratio (peak area of the test compounds/peak area of the control compounds) was converted to the percentage of remaining compound, with the 0 min time point ratio set to 100%. T½ and CLint were calculated from the percentage of remaining compound versus the incubation time. From the resulting function, the slope (k) was determined. The equations T1/2 (min) = ln(2)/k and CLint in vitro (μL/min/mg) = k*1000/0.25 were used to determine T½ and CLint.

Where [1] appears, read: Table S5, CLint/fu, read-out: CLint_u (L/h/kg) Human (converted).
The mark [2] stands for this setting: Table S5, read-out: CLint (L/h/kg) Human (converted).
[3] abbreviates: Table 5, CLint/fu, read-out: CLint_u (L/h/kg) human (converted).
Setting [4] is: Table 5, read-out: CLint (L/h/kg) human (converted).

The structures appear in SMILES notation. Read-outs that look alike come from different tables or passages of the source.

Take `COc1ccc2cc(OCC(=O)NCCc3nc4ccccc4[nH]3)ccc2c1` [Compound 12]: the CLint scaled at 5 µM by setting is: under setting [1], 233 L/h/kg; under setting [2], 25.6 L/h/kg.
Take `O=C(COc1ccc(N2C(=O)CCC2=O)cc1)NCCc1nc2ccccc2[nH]1` [Compound 4]: the CLint scaled at 5 µM runs as follows: under setting [1], less than 1.51 L/h/kg; under setting [2], less than 1.5 L/h/kg.
Consider `C=CCCn1c(CCNC(=O)COc2ccccc2Cl)nc2ccccc21` [Compound 38], for which the CLint scaled at 5 µM runs as follows: under setting [3], 501 L/h/kg; under setting [4], 230 L/h/kg.
Consider `O=C(COc1ccccc1)NCCc1nc2ccccc2n1-c1ccccc1` [Compound 30], for which the CLint scaled at 5 µM runs as follows: under setting [1], 92.4 L/h/kg; under setting [2], 58.1 L/h/kg.
As for `O=C(COc1ccccc1)NCCc1nc2ccccc2n1CCCOc1ccccc1` [Compound 24], the CLint scaled at 5 µM is 524 L/h/kg under setting [1] and 142 L/h/kg under setting [2].
Take `O=C(CCc1ccccc1Br)NCCc1nc2ccccc2[nH]1` [Compound 36]: the CLint scaled at 5 µM by setting is: under setting [3], 38.2 L/h/kg; under setting [4], 28.8 L/h/kg.
With `O=C(COc1ccc(Br)cc1)NCCc1nc2ccccc2[nH]1` [Compound 33], the CLint scaled at 5 µM runs as follows: under setting [3], 12.5 L/h/kg; under setting [4], 10.4 L/h/kg.
For the molecule `N#Cc1ccccc1OCC(=O)NCCc1nc2ccccc2[nH]1` [Compound 31], the CLint scaled at 5 µM runs as follows: under setting [3], 6.6 L/h/kg; under setting [4], 5.6 L/h/kg.
On to `Cc1ccccc1OCC(=O)NCCc1nc2ccccc2n1CCOc1ccccc1Br` [Compound 22], for which the CLint scaled at 5 µM by setting is: under setting [1], 3870 L/h/kg; under setting [2], 123 L/h/kg.
As for `O=C(COc1ccccc1)NCCc1nc2ccccc2[nH]1` [Compound 1], the CLint scaled at 5 µM under setting [1] is less than 1.5 L/h/kg and the CLint scaled at 5 µM under setting [2] is less than 1.5 L/h/kg.
As for `O=C(COc1ccccc1)NCCc1nc2ccccc2n1CCOc1ccccc1` [Compound 20], the CLint scaled at 5 µM under setting [1] was 301 L/h/kg and the CLint scaled at 5 µM under setting [2] is 123 L/h/kg.
The corresponding values for `Cn1c(CCNC(=O)COc2ccccc2)nc2ccccc21` [Compound 25] are 4.61 L/h/kg and 4.57 L/h/kg.
`Cc1ccccc1OCC(=O)NCCc1nc2ccccc2o1` [Compound 37]: the CLint scaled at 5 µM runs as follows: under setting [3], 26.9 L/h/kg; under setting [4], 22.9 L/h/kg.
On to `O=C(COc1cccc(NC(=O)CCCO)c1)NCCc1nc2ccccc2[nH]1` [Compound 7], for which the CLint scaled at 5 µM under setting [1] is less than 1.5 L/h/kg.
Turning to `NC(=O)Cn1c(CCNC(=O)COc2ccccc2)nc2ccccc21` [Compound 28], the CLint scaled at 5 µM under setting [1] is less than 1.53 L/h/kg and the CLint scaled at 5 µM under setting [2] is less than 1.5 L/h/kg.
On to `O=C(COc1ccccc1Br)NCCc1nc2ccccc2[nH]1` [Compound 18], for which the CLint scaled at 5 µM reads like this: under setting [3], 16 L/h/kg; under setting [4], 9.2 L/h/kg.
On to `O=C(COc1ccc2ccc(O)cc2c1)NCCc1nc2ccccc2[nH]1` [Compound 11], for which the CLint scaled at 5 µM was 14.2 L/h/kg under setting [1] and 9.48 L/h/kg under setting [2].
Regarding `O=C(COc1ccc2cc(O)ccc2c1)NCCc1nc2ccccc2[nH]1` [Compound 10], the CLint scaled at 5 µM reads like this: under setting [1], 8.15 L/h/kg; under setting [2], 6.66 L/h/kg.
On to `CC(=O)Nc1cccc(OCC(=O)NCCc2nc3ccccc3[nH]2)c1` [Compound 3], for which, for the setting “Table S5, CLint/fu”, the “CLint_u (L/h/kg) Human” value is reported as 6.90 L/h/kg. Moreover, the CLint scaled at 5 µM runs as follows: under setting [1], 6.9 L/h/kg; under setting [2], 6.9 L/h/kg.
As to `C=CCCn1c(CCNC(=O)COc2ccccc2)nc2ccccc21` [Compound 27], the CLint scaled at 5 µM by setting is: under setting [1], 70.2 L/h/kg; under setting [2], 60.4 L/h/kg.
For `Nc1cccc(OCC(=O)NCCc2nc3ccccc3[nH]2)c1` [Compound 9], the CLint scaled at 5 µM is 11.1 L/h/kg under setting [1] and 11 L/h/kg under setting [2].
Regarding `O=C(COc1ccccc1Br)NCCc1nc2ccccc2n1CCOc1ccccc1Br` [Compound 23], the CLint scaled at 5 µM is 3370 L/h/kg under setting [1] and 136 L/h/kg under setting [2].
As for `CC(=O)Nc1ccc(OCC(=O)NCCc2nc3ccccc3[nH]2)cc1` [Compound 2], the CLint scaled at 5 µM by setting is: under setting [1], less than 1.5 L/h/kg; under setting [2], less than 1.5 L/h/kg.
Regarding `O=C(COc1ccc2c(C(=O)O)cccc2c1)NCCc1nc2ccccc2[nH]1` [Compound 15], the CLint scaled at 5 µM is less than 1.5 L/h/kg under setting [1] and less than 1.5 L/h/kg under setting [2].
On to `COCCn1c(CCNC(=O)COc2ccccc2)nc2ccccc21` [Compound 29], for which the CLint scaled at 5 µM under setting [1] is 23 L/h/kg and the CLint scaled at 5 µM under setting [2] was 23 L/h/kg.
Turning to `O=C(COc1cccc(N2C(=O)CCC2=O)c1)NCCc1nc2ccccc2[nH]1` [Compound 6], the “CLint_u (L/h/kg) Human” value (Table S5, CLint/fu) worked out at 3.54 L/h/kg. Moreover, the CLint scaled at 5 µM under setting [1] is 3.54 L/h/kg and the CLint scaled at 5 µM under setting [2] is 3.54 L/h/kg.
As for `O=C(COc1ccccc1)NCCc1nc2ccccc2n1CCOc1ccccc1Br` [Compound 19], the CLint scaled at 5 µM is, setting by setting: under setting [1], 949 L/h/kg; under setting [2], 112 L/h/kg.
Consider `O=C(Cn1ccnc1[N+](=O)[O-])NCc1ccccc1` [BZ, benznidazole, reference compound], for which the CLint scaled at 5 µM is 1.5 L/h/kg under setting [3], 1.5 L/h/kg under setting [4], 1.5 L/h/kg under setting [1] and 1.5 L/h/kg under setting [2].
Turning to `O=C(COc1cccc([N+](=O)[O-])c1)NCCc1nc2ccccc2[nH]1` [Compound 8], the CLint scaled at 5 µM was 6.58 L/h/kg under setting [1] and 6.58 L/h/kg under setting [2].
For the molecule `O=C(COc1ccccc1)NCCc1nc2ccccc2n1Cc1ccccc1` [Compound 26], the CLint scaled at 5 µM under setting [1] was 196 L/h/kg and the CLint scaled at 5 µM under setting [2] was 120 L/h/kg.
In the case of `O=C(COc1ccc2ccccc2c1Br)NCCc1nc2ccccc2[nH]1` [Compound 34], the CLint scaled at 5 µM under setting [3] is 540 L/h/kg and the CLint scaled at 5 µM under setting [4] is 49.9 L/h/kg.
On to `O=C(COc1ccc2ccccc2c1)NCCc1nc2ccccc2[nH]1` [Compound 35], for which the CLint scaled at 5 µM reads like this: under setting [3], 43.9 L/h/kg; under setting [4], 21.1 L/h/kg.
As to `O=C(COc1ccc(NC(=O)CCCO)cc1)NCCc1nc2ccccc2[nH]1` [Compound 5], the CLint scaled at 5 µM reads like this: under setting [1], 1.53 L/h/kg; under setting [2], 1.5 L/h/kg.
On to `Cc1ccccc1OCC(=O)NCCc1nc2ccccc2[nH]1` [Compound 17], for which the CLint scaled at 5 µM under setting [3] is 31.2 L/h/kg and the CLint scaled at 5 µM under setting [4] is 23.9 L/h/kg.
Turning to `O=C(COc1ccccc1[N+](=O)[O-])NCCc1nc2ccccc2[nH]1` [Compound 32], the CLint scaled at 5 µM is, setting by setting: under setting [3], 39.2 L/h/kg; under setting [4], 25.5 L/h/kg.
With `O=C(COc1ccccc1)NCCc1nc2ccccc2n1CCOCc1ccccc1` [Compound 21], the CLint scaled at 5 µM runs as follows: under setting [1], 496 L/h/kg; under setting [2], 235 L/h/kg.
